Measurements published in the OligoGym collection.
After the bases stand the sugars from the 5' end (letter, count) and the backbone: PS all phosphorothioate, else s phosphorothioate and o phosphodiester by linkage. Methylation of C is not given here. l = locked nucleic acid (LNA); d = 2'-deoxy (DNA)

molecular target: SNHG14; conditions: ASO, Human Neuronal Cell, 0.2 µM

Row | Sequence | target mRNA inhibition [%]
1 | TTAAGCTTTCACCTAT (sugars l2 d10 l4, PS) | 37
2 | TTACCTACATCTCATACTT (sugars l2 d15 l2, PS) | -5
3 | TTCAAGAATTCTCTCC (sugars l2 d10 l4, PS) | 46
4 | TTCCAGCTTATTTACCT (sugars l3 d12 l2, PS) | 41
5 | TTCTACTAAACATACAC (sugars l3 d11 l3, PS) | 40
6 | TTCTGTTTCCATTTACA (sugars l4 d11 l2, PS) | 43
7 | TTGATTCAATTCCCTT (sugars l2 d10 l4, PS) | 67
8 | TTGCTTCCAATTTATTT (sugars l4 d11 l2, PS) | 25
9 | TTTACACTTAATTATACT (sugars l2 d12 l4, PS) | 7
10 | TTTACTCTGCAATACAC (sugars l3 d11 l3, PS) | 41
11 | TTTACTGTCAACTCCT (sugars l2 d10 l4, PS) | 51
12 | TTTCCATTTATTTCCATTT (sugars l4 d13 l2, PS) | 47
13 | TTTCCTCTGCTTATAAC (sugars l4 d11 l2, PS) | 34
14 | TTTCTGACTCCCTATCC (sugars l2 d13 l2, PS) | 25

same assay, conditions: ASO, Human Neuronal Cell, 1 µM

Row | Sequence | target mRNA inhibition [%]
15 | TTAAGCTTTCACCTAT (sugars l2 d10 l4, PS) | 54
16 | TTACCTACATCTCATACTT (sugars l2 d15 l2, PS) | -7
17 | TTCAAGAATTCTCTCC (sugars l2 d10 l4, PS) | 50
18 | TTCCAGCTTATTTACCT (sugars l3 d12 l2, PS) | 26
19 | TTCTACTAAACATACAC (sugars l3 d11 l3, PS) | 49
20 | TTCTGTTTCCATTTACA (sugars l4 d11 l2, PS) | 39
21 | TTGATTCAATTCCCTT (sugars l2 d10 l4, PS) | 72
22 | TTGCTTCCAATTTATTT (sugars l4 d11 l2, PS) | 44
23 | TTTACACTTAATTATACT (sugars l2 d12 l4, PS) | 6
24 | TTTACTCTGCAATACAC (sugars l3 d11 l3, PS) | 56
25 | TTTACTGTCAACTCCT (sugars l2 d10 l4, PS) | 57
26 | TTTCCATTTATTTCCATTT (sugars l4 d13 l2, PS) | 56
27 | TTTCCTCTGCTTATAAC (sugars l4 d11 l2, PS) | 56
28 | TTTCTGACTCCCTATCC (sugars l2 d13 l2, PS) | 14

same assay, conditions: ASO, Human Neuronal Cell, 5 µM

Row | Sequence | target mRNA inhibition [%]
29 | TTACCTACATCTCATACTT (sugars l2 d15 l2, PS) | 7

same assay, conditions: ASO, Human Neuronal Cell, 7.5 µM

Row | Sequence | target mRNA inhibition [%]
30 | TGTTTATACCCTTTCCAA (sugars l1 d12 l2 d1 l2, PS) | 58
31 | TGTTTATACCCTTTCCAA (sugars lddlddddddddlddlll, PS) | 61
32 | TGTTTATACCCTTTCCAA (sugars lldldlddddddldddll, PS) | 54
33 | TGTTTCCATCTACTATTA (sugars lddddlddddddddldll, PS) | 62
34 | TGTTTCCATCTACTATTA (sugars lddddldddddddlddll, PS) | 62
35 | TGTTTCCATCTACTATTA (sugars lddldlddddddddddll, PS) | 59
36 | TTACACTTAATTATACTTCC (sugars ldddldldddddddllddll, PS) | 62
37 | TTACACTTAATTATACTTCC (sugars lddlldldddddddddddll, PS) | 68
38 | TTACACTTAATTATACTTCC (sugars ldldldldddddddddldll, PS) | 65
39 | TTATACCTTTCTTTAACCCT (sugars l1 d5 l1 d11 l2, PS) | 59
40 | TTATACCTTTCTTTAACCCT (sugars ldddldldddddddldddll, PS) | 62
41 | TTATACCTTTCTTTAACCCT (sugars ldldddddddddddddldll, PS) | 53
42 | TTATACCTTTCTTTAACCCT (sugars ldlddddddddddlddddll, PS) | 60
43 | TTATAGCCATTCTATCT (sugars l1 d1 l1 d10 l4, PS) | 55
44 | TTATAGCCATTCTATCT (sugars l1 d1 l2 d11 l2, PS) | 66
45 | TTATAGCCATTCTATCT (sugars l2 d10 l2 d1 l2, PS) | 56
46 | TTATAGCCATTCTATCT (sugars l2 d11 l1 d1 l2, PS) | 56
47 | TTATAGCCATTCTATCT (sugars l3 d10 l1 d1 l2, PS) | 59
48 | TTATAGCCATTCTATCT (sugars ldddldddddddlddll, PS) | 31
49 | TTATAGCCATTCTATCT (sugars ldddlddddddllddll, PS) | 16
50 | TTATAGCCATTCTATCT (sugars lddlddddddddlddll, PS) | 17
51 | TTATAGCCATTCTATCT (sugars lddldddddddldddll, PS) | 36
52 | TTATAGCCATTCTATCT (sugars lddldddddddldllll, PS) | 22
53 | TTATAGCCATTCTATCT (sugars lddllddddddddldll, PS) | 62
54 | TTATAGCCATTCTATCT (sugars lddllddddddldldll, PS) | 15
55 | TTATAGCCATTCTATCT (sugars ldldddddddddldlll, PS) | 53
56 | TTATAGCCATTCTATCT (sugars ldldlddddddldddll, PS) | 47

Row | Sequence | target mRNA inhibition [%]
57 | TTATAGCCATTCTATCT (sugars ldldlddddddlddlll, PS) | 37
58 | TTATAGCCATTCTATCT (sugars ldlldddddddldddll, PS) | 43
59 | TTATAGCCATTCTATCT (sugars ldlldddddddlddlll, PS) | 21
60 | TTATAGCCATTCTATCT (sugars lldddddddddldldll, PS) | 56
61 | TTATAGCCATTCTATCT (sugars llddlddddddldddll, PS) | 45
62 | TTATAGCCATTCTATCT (sugars lldldddddddldddll, PS) | 59
63 | TTATAGCCATTCTATCT (sugars lldldddddddldldll, PS) | 26
64 | TTATAGCCATTCTATCT (sugars lllddddddddldldll, PS) | 44
65 | TTATTTCCATTTATTTTCA (sugars lddlldddddddldldlll, PS) | 69
66 | TTCAGCTTTTAACCAGAGTG (sugars l2 d15 l3, PS) | 73
67 | TTCCATTTATTTCCATTTAT (sugars ldddlddddddddddlldll, PS) | 55
68 | TTCTACTATACTTTCCTCT (sugars ldddldddddddddlddll, PS) | 57
69 | TTCTACTATACTTTCCTCT (sugars ldldddddddddlddddll, PS) | 59
70 | TTCTGTATACACCATCC (sugars l1 d3 l1 d10 l2, PS) | 50
71 | TTCTGTATACACCATCC (sugars l1 d12 l4, PS) | 51
72 | TTCTGTATACACCATCC (sugars ldddldddddddldlll, PS) | 58
73 | TTCTGTATACACCATCC (sugars lddldddddddddldll, PS) | 57
74 | TTCTGTATACACCATCCC (sugars ldlddddddddddlddll, PS) | 63
75 | TTGATTCAATTCCCTTA (sugars l1 d2 l1 d9 l4, PS) | 69
76 | TTGATTCAATTCCCTTA (sugars l2 d9 l1 d3 l2, PS) | 60
77 | TTGATTCAATTCCCTTA (sugars ldddlddddddldldll, PS) | 48
78 | TTGATTCAATTCCCTTA (sugars ldldlddddddddldll, PS) | 59
79 | TTTACACTTAATTATACTTC (sugars l6 d7 l1 d4 l2, PS) | 58
80 | TTTATACCTTTCTTTAACCC (sugars l1 d12 l1 d4 l2, PS) | 17
81 | TTTATACCTTTCTTTAACCC (sugars l1 d14 l2 d1 l2, PS) | 63
82 | TTTATACCTTTCTTTAACCC (sugars l2 d1 l1 d14 l2, PS) | 50
83 | TTTATACCTTTCTTTAACCC (sugars lddldddddddddlddddll, PS) | 53

Row | Sequence | target mRNA inhibition [%]
84 | TTTATCAATATCTTCTCA (sugars l3 d2 l1 d9 l3, PS) | 65
85 | TTTATCAATATCTTCTCA (sugars l4 d10 l1 d1 l2, PS) | 69
86 | TTTATCAATATCTTCTCA (sugars lllldldddddddlddll, PS) | 62
87 | TTTATCAATATCTTCTCAC (sugars l1 d12 l2 d1 l3, PS) | 60
88 | TTTATCAATATCTTCTCAC (sugars l4 d12 l3, PS) | 70
89 | TTTATCAATATCTTCTCAC (sugars lddlllddddddddlddll, PS) | 63
90 | TTTATCAATATCTTCTCAC (sugars ldlddlddddddldddlll, PS) | 61
91 | TTTATCAATATCTTCTCAC (sugars lllddldddddddllddll, PS) | 54
92 | TTTATCAATATCTTCTCACT (sugars ldddddddddddddldldll, PS) | 53
93 | TTTATCAATATCTTCTCACT (sugars lddddlddddddddddldll, PS) | 68
94 | TTTATCAATATCTTCTCACT (sugars ldldddddddddddldddll, PS) | 39
95 | TTTCCATTTATTTCCATTT (sugars l2 d2 l2 d11 l2, PS) | 59
96 | TTTCCATTTATTTCCATTT (sugars lldlddddddddddlldll, PS) | 53
97 | TTTTAACCAGAGTGGCAT (sugars l4 d11 l3, PS) | 56
98 | TTTTAACCAGAGTGGCATCC (sugars l2 d16 l2, PS) | 59
99 | TTTTATACCTTTCTTTAACC (sugars l1 d1 l2 d14 l2, PS) | 57
100 | TTTTATACCTTTCTTTAACC (sugars l1 d5 l1 d10 l3, PS) | 38
101 | TTTTATACCTTTCTTTAACC (sugars l1 d14 l1 d2 l2, PS) | 21
102 | TTTTATACCTTTCTTTAACC (sugars ldlddddddddddlldddll, PS) | 53
103 | TTTTATACCTTTCTTTAACC (sugars llddddldddddddldddll, PS) | 51
104 | TTTTATACCTTTCTTTAACC (sugars llldddddddddddldldll, PS) | 65
105 | TTTTTATACCTTTCTTTAAC (sugars ldllddddddddddlldlll, PS) | 57
106 | TTTTTTCTTACTATCTTCAA (sugars lldldddddddddddldlll, PS) | 51
107 | TTTTTTCTTACTATCTTCAA (sugars llldddlddddddddlddll, PS) | 58
108 | TTTTTTTCTTACTATCTTCA (sugars lddddddddddddldlddll, PS) | 55

same assay, conditions: ASO, Mouse Primary Neuronal Cell, 0.005 µM

Row | Sequence | target mRNA inhibition [%]
109 | TTACCTACATCTCATACTT (sugars l2 d15 l2, PS) | 79
